Assay results reported in patent US11458142B2, “Compositions and methods for ameliorating pain” (The Board of Supervisors of Louisiana State University and …, priority 2017, dated 2022).
Where “and” joins values, the source holds several entries; their conditions need not be identical. Equal entries are not always repeated.

Columns and labels:
CD1 male mice [1] = test: Acetic acid-induced abdominal writhing assay; type: in vivo, mouse; settings: for No. of writhes counted within a 10 min time interval, 25 min post drug administration, beginning 5 min after acetic acid injection: 75 mg/Kg body weight p.o., single animals, n = 7 (raw data for FIG. 1A); for number of writhes induced by injection of acetic acid: mean, vehicle only 42.3+/−7.2
Experimental: Two different assays were utilized to quantify the analgesic effects of the compounds. All tests were performed on CD1 male mice. […] In some embodiments, the vehicle can comprise Agent K, 0.2%, Bio-serve, or Labrafil 1944 (Gottefosee, France). Compound or vehicle was administered orally by lavage under brief halothane anesthesia to animals fasted overnight.
Acetic acid-induced abdominal writhing assay. Contraction of the abdominal muscle and stretching of the hind limbs is induced as a response to intraperitoneal (ip) injection of an acetic acid solution, as described Hendershot and Forsaith, 1959. In this model of visceral pain, abdominal contractions (writhing) is induced in mice by an ip injection of 0.4% acetic acid at a dose of 10 mL/Kg, 25 min after drug administration. The number of writhes is counted for 10 min beginning 5 min after acetic acid injection. […] Data is expressed as mean±SEM, n=7.

CD1 male mice [2] = test: Blood creatinine functional assay; type: in vivo, mouse; settings: 600 mg/Kg PO, serum
CD1 male mice [3] = test: Liver function assays (ALT, AST, ALP) in serum; type: in vivo, mouse; settings: 600 mg/kg PO
CYP2E1 = target: T1, CYP2E1 (Homo sapiens, UniProt P05181); test: VIVID CYP450 screening assay, CYP2E1; type: in vitro ADME; settings: probe CYP enzyme specific fluorogenic substrate (not named)
T1 construct: purchased Life Technologies, Invitrogen/Thermo Fisher Scientific; host or cells: insect cells (microsomes)
Experimental: (§1) The […]450 screening assay kit (Life Technologies, Invitrogen/Thermo Fisher Scientific) was used as an in vitro high throughput screening. Here, each compound was mixed with a master pre-mix comprising of CYP450 BACULOSOMES (which are microsomes prepared from insect cells expressing a specific human P450 isoenzyme), reagent and regeneration system, which contained glucose-6-phosphate and glucose-6-phosphate dehydrogenase. The mixture was pre-incubated at room temperature for 20 minutes. Following this, each CYP enzyme specific substrate and NADP^+ were added and the mixture incubated at room temperature for 30 minutes. The reaction was stopped by addition of 0.5 M Tris base. CYP activity was evaluated by measuring the fluorescence of the fluorescent metabolite generated from each CYP enzyme specific substrate.

HepaRG and hHEPs [4] = test: GSH assay (ThiolTracker Violet) in hepatocytes; type: cell-based, human; settings: 500 μM and 1000 μM; time and dose-dependent
Experimental: (§2) HepaRG cells procured from Thermo Fisher Scientific (Invitrogen) are terminally differentiated hepatic cells, which are derived from a hepatic progenitor cell line that retains many characteristics of primary human hepatocytes. […] LDH assay. Using the Pierce LDH Cytotoxicity assay kit from Thermo Scientific, cells were incubated in presence of various drug compounds, followed by collection of the medium supernatant. Release of LDH was measured in 96 well plate formats. The absorbance was measured at 490 nm and 680 nm and the final result was absorbance observed at 680 nm subtracted from absorbance observed at 490 nm (A490 nm-[…] nm). GSH assay. Using the ThiolTracker Violet Glutathione Detection reagent from Molecular Probes (Invitrogen), after hepatocytes were incubated in the presence of various compounds, incubation medium was removed, cells rinsed with D-PBS conditioned medium followed by incubation with pre-warmed ThiolTracker Violet dye (working solution prepared as per manufacturer's instructions) for 30 minutes. Fluorescence was measured at the following wavelengths: excitation (404 nm) and emission (526 nm). The finalized result was expressed as relative fluorescence units (RFU), which indicates the cellular level of reduced glutathione (GSH) in intact cells.

mouse = test: LPS-induced fever mouse model; type: in vivo; settings: versus ApAP, 2 h, 8 h and 10 h
CYP3A4 = target: T2, CYP3A4 (Homo sapiens, UniProt P08684); test: VIVID CYP450 screening assay, CYP3A4; type: in vitro ADME; settings: probe CYP enzyme specific fluorogenic substrate (not named)
T2 construct: purchased Life Technologies, Invitrogen/Thermo Fisher Scientific; host or cells: insect cells (microsomes)
Experimental: as §1

CYP2D6 = target: T3, CYP2D6 (Homo sapiens, UniProt P10635); test: VIVID CYP450 screening assay, CYP2D6; type: in vitro ADME
T3 construct: purchased Life Technologies, Invitrogen/Thermo Fisher Scientific; host or cells: insect cells (microsomes)
Experimental: as §1

HepaRG and hHEPs [5] = test: LDH cytotoxicity assay in hepatocytes; type: cell-based, human; settings: 500 μM and 1000 μM; time and dose-dependent
Experimental: as §2

CD1 male mice [6] = test: Tail-flick assay; type: in vivo, mouse; settings: 600 mg/Kg per os, 30 minutes post injection; versus ApAP
Experimental: Two different assays were utilized to quantify the analgesic effects of the compounds. All tests were performed on CD1 male mice. […] In some embodiments, the vehicle can comprise Agent K, 0.2%, Bio-serve, or Labrafil 1944 (Gottefosee, France). Compound or vehicle was administered orally by lavage under brief halothane anesthesia to animals fasted overnight. Tail-flick assay. Analgesic effect of drugs was determined by using the reaction time (latency) of mice to thermal stimulation of the tail tip. All animals (CD1 male mice) were fasted overnight (15 hours) and, their baseline tail flick latency (seconds) was recorded using an IITC Tail Flick Analgesia Meter. The tail of each mouse was exposed to a focused beam of light and the latency to remove the tail from the path of the stimulus were recorded electronically using a photoelectric cell of the IITC Tail Flick Analgesia Meter. The stimulus intensity was adjusted to produce baseline latencies of 3-6 seconds. […] At 30 minutes post injection, tail flick latency was recorded again to determine total change in latency. […] Data expressed as mean±SEM, n=10.

T1 sequence (P05181 whole entry): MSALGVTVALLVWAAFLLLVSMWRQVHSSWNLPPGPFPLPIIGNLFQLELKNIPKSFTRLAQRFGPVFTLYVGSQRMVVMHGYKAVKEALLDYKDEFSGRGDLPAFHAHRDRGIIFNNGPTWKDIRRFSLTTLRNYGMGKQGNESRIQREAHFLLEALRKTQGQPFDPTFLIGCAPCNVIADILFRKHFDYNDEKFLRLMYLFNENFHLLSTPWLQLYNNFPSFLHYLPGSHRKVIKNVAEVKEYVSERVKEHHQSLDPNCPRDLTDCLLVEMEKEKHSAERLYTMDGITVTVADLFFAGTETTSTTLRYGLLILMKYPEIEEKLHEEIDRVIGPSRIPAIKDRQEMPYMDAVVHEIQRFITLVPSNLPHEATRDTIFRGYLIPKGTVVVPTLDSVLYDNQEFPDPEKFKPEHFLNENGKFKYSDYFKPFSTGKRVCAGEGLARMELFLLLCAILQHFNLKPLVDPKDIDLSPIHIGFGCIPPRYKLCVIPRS
T3 sequence (P10635 whole entry): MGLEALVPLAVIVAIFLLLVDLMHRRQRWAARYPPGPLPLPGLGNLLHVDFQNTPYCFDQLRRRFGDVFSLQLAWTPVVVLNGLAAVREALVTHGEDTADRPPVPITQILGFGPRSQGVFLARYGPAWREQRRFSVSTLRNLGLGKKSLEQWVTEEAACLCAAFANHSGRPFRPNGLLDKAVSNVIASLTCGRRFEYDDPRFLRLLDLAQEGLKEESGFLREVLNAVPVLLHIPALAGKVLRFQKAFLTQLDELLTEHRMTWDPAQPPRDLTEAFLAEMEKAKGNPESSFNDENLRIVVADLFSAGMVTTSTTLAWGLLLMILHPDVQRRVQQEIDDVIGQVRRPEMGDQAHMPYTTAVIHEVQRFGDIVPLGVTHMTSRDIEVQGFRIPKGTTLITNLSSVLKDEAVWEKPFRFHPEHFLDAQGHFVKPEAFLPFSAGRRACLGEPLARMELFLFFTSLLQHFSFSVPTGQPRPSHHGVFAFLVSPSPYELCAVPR
T2 sequence (P08684 whole entry): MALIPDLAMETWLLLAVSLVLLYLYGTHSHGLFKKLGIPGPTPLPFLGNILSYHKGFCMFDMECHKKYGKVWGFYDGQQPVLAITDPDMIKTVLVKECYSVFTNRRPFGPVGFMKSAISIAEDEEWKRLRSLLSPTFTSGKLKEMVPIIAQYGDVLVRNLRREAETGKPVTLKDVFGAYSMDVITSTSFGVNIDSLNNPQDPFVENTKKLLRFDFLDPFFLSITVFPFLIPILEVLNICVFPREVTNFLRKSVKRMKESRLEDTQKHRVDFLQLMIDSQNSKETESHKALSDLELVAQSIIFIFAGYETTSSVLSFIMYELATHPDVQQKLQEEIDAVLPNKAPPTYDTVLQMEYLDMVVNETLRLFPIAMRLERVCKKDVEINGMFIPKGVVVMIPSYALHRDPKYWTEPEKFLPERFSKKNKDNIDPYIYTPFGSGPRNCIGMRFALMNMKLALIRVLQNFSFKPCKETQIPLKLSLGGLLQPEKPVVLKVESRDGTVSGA

COc1ccc(CNC(=O)c2ccccc2S(=O)(=O)NCC(=O)Nc2ccc(O)cc2)cc1 [SRP6j]
No. of writhes counted within a 10 min time interval, 25 min post drug administration, beginning 5 min after acetic acid injection (CD1 male mice [1]): 10 and 14 and 16 and 17 and 18 (2×) and 19

CC(=O)Nc1ccc(O)cc1 [ApAP, N-acetyl-para-aminophenol, reference compound]
No. of writhes counted within a 10 min time interval, 25 min post drug administration, beginning 5 min after acetic acid injection (CD1 male mice [1]): 11 and 12 and 14 and 15 and 16 (3×) | blood creatinine levels (CD1 male mice [2]): increased levels of creatinine | ALT, AST and AP enzyme activity (liver function tests) (CD1 male mice [3]): Increased levels

O=C(CNS(=O)(=O)c1ccccc1C(=O)NC1CCCC1)Nc1ccc(O)cc1 [SRP6o]
No. of writhes counted within a 10 min time interval, 25 min post drug administration, beginning 5 min after acetic acid injection (CD1 male mice [1]): 11 and 14 and 16 and 17 (2×) and 18 and 24

CCCCNC(=O)c1ccccc1S(=O)(=O)NCC(=O)Nc1ccc(O)cc1 [SRP6i]
No. of writhes counted within a 10 min time interval, 25 min post drug administration, beginning 5 min after acetic acid injection (CD1 male mice [1]): 7 and 12 and 16 and 17 and 22 and 27 and 33

CCN(CC)C(=O)c1ccccc1S(=O)(=O)NCC(=O)Nc1ccc(O)cc1 [SRP6d, 2-<[(4-Hydroxy-phenylcarbamoyl)-methyl]-sulfamoyl>-N,N-diethyl-benzamide]
No. of writhes counted within a 10 min time interval, 25 min post drug administration, beginning 5 min after acetic acid injection (CD1 male mice [1]): 15 (3×) and 11 and 14 and 20 and 18 | number of writhes induced by injection of acetic acid (CD1 male mice [1]): 15.7+/−1.2 | inhibition at 30 min (CYP2E1): ~25% | amount of reduced glutathione (GSH) (HepaRG and hHEPs [4]): increased | antipyresis (temperature curves) (mouse): comparable antipyresis to ApAP | inhibition at 30 min (CYP3A4): ~25% | inhibitory effect for CYP2D6 (CYP2D6): marginal inhibitory effect | lactate dehydrogenase (LDH) release (HepaRG and hHEPs [5]): consistently decreased | analgesia in tail flick test (latency) (CD1 male mice [6]): comparable significant analgesia

O=C(CNS(=O)(=O)c1ccccc1C(=O)NCCc1cccc(O)c1O)Nc1ccc(O)cc1 [SRP6r]
No. of writhes counted within a 10 min time interval, 25 min post drug administration, beginning 5 min after acetic acid injection (CD1 male mice [1]): 9 and 12 and 18 and 20 and 25 and 26 (2×) | number of writhes induced by injection of acetic acid (CD1 male mice [1]): 9.5+/−4 | inhibition at 30 min (CYP2E1): ~25% | amount of reduced glutathione (GSH) (HepaRG and hHEPs [4]): increased | antipyresis (temperature curves) (mouse): comparable antipyresis to ApAP | melting point: 87 to 89 °C | inhibition at 30 min (CYP3A4): ~25% | inhibitory effect for CYP2D6 (CYP2D6): marginal inhibitory effect | lactate dehydrogenase (LDH) release (HepaRG and hHEPs [5]): consistently decreased | analgesia in tail flick test (latency) (CD1 male mice [6]): comparable significant analgesia

CC(C)CNC(=O)c1ccccc1S(=O)(=O)NCC(=O)Nc1ccc(O)cc1 [SRP6p]
No. of writhes counted within a 10 min time interval, 25 min post drug administration, beginning 5 min after acetic acid injection (CD1 male mice [1]): 14 (2×) and 17 and 24 and 26 and 29 and 30
